Results on 8 molecules are retold here after ChEMBL document CHEMBL3632553, “New fluorinated agonists for targeting the sphingosin-1-phosphate receptor 1 (S1P(1))” (2015).

Molecules are shown by their SMILES. Active and inactive are the calls of the source. No cut-off for these calls is given here.

For assay [1], the target named is Sphingosine 1-phosphate receptor 1 (Homo sapiens) (UniProt P21453). The assay can be described thus: Agonist activity at human sphingosin-1-phosphate receptor 1 expressed in CHO cells assessed as phosphorylation status of p44/42 MAPK after 2.5 mins by Western blotting. The assay is classed as cell-based.
For assay [2] the target is unchanged. Description: Agonist activity at human sphingosin-1-phosphate receptor 1 expressed in CHO cells assessed as phosphorylation status of p44/42 MAPK after 5 mins by Western blotting. It counts as cell-based.
Assay [3] has the same target. Description: Agonist activity at human sphingosin-1-phosphate receptor 1 expressed in CHO cells assessed as phosphorylation status of p44/42 MAPK after 10 mins by Western blotting. It counts as cell-based.
Assay [4] has as its system Mus musculus. Description: Immunosuppressive activity in mouse assessed as reduction of WBC level in peripheral blood assessed per 10^6 cells at 1.25 mg/kg, ip after 24 hrs by flow cytometry (reference value: 8.94 +/- 0.59 ml). The assay is classed as functional.
The subject of assay [5] is Mus musculus. Description: Immunosuppressive activity in mouse assessed as reduction of CD4+ level in peripheral blood assessed per 10^6 cells at 1.25 mg/kg, ip after 24 hrs by flow cytometry (reference value: 0.73 +/- 0.07 ml). It counts as functional.
Assay [6] deals with Mus musculus. Description: Immunosuppressive activity in mouse assessed as reduction of CD8+ level in peripheral blood assessed per 10^6 cells at 1.25 mg/kg, ip after 24 hrs by flow cytometry (reference value: 0.48 +/- 0.05 ml). The assay is classed as functional.
Assay [7] concerns Mus musculus. Description: Immunosuppressive activity in mouse assessed as reduction of B-cells level in peripheral blood assessed per 10^6 cells at 1.25 mg/kg, ip after 24 hrs by flow cytometry (reference value: 4.72 +/- 0.53 ml). The assay is classed as functional.
Assay [8] relates to Mus musculus. Description: Immunosuppressive activity in mouse assessed as induction of lymphopenia at 1.25 mg/kg, ip after 24 hrs by flow cytometry. The assay is classed as functional.

Sphingosine 1-phosphate receptor 1 (Homo sapiens), sequence (P21453 whole entry): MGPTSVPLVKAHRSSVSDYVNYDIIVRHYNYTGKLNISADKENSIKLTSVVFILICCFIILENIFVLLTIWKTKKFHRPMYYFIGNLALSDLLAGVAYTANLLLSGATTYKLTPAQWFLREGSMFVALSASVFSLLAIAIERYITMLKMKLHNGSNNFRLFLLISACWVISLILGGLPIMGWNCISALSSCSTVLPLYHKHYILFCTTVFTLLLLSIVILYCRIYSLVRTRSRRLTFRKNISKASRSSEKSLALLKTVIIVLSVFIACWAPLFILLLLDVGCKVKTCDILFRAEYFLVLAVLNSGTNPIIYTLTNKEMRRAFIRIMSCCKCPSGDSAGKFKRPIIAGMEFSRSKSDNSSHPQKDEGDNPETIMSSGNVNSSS

In the case of `NC(CO)(CO)CCCCCCCCCCc1cccc(S(F)(F)(F)(F)F)c1`, the outcome in assay [1], in assay [2] and in assay [3] was Active.

Regarding `CCCCCCCCc1ccc(CCC(N)(CO)CO)cc1` [FINGOLIMOD], the cell count in the assay on Mus musculus [4] is 3.69 10^6 cells/mL; in the assay with Mus musculus [5], 0.02 10^6 cells/mL; with Mus musculus [6], 0.04 10^6 cells/mL; in the assay on Mus musculus [7] it was 0.61 10^6 cells/mL. The Activity in the assay with Mus musculus [8] was found to be 97%.

For `NC(CO)(CO)CCCCCCCCCCc1ccc(C(F)(F)F)cc1`, the result in assay [1], in assay [2] and in assay [3] was Active.

With `NC(CO)(CO)CCCCCCCCCCc1c(F)c(F)c(F)c(F)c1F`, the result in assay [1], in assay [2] and in assay [3] was Active.

As for `NC(CO)(CO)CCCCCCCCCCc1ccc(S(F)(F)(F)(F)F)cc1`, the outcome in assay [1], in assay [2] and in assay [3] was Active.

In the case of `NC(CO)(CO)CCCCCCCCCCCCCCC(F)F`, the outcome in assay [1], in assay [2] and in assay [3] was Active. For the same molecule, the cell count is 1.67 10^6 cells/mL in the assay on Mus musculus [4], 0.03 10^6 cells/mL with Mus musculus [5], 0.04 10^6 cells/mL in the assay with Mus musculus [6] and 0.29 10^6 cells/mL with Mus musculus [7]. In addition, the Activity with Mus musculus [8] was 95%.

For the molecule `NC(CO)(CO)CCCCCCCCCCc1ccccc1`, the outcome in assay [1], in assay [2] and in assay [3] was Active.

Consider `NC(CO)(CO)CCCCCCCCCCc1ccc(F)cc1`, for which the outcome in assay [1], in assay [2] and in assay [3] was Active.
